Reference: the NIST ThermoML archive (doi:10.1021/je800497u)

Experiments:
[1] = xn = mol fraction of the nth substance listed; details: 101 kPa, Liquid
[2] = 101 kPa, Liquid

CCCCCCCCCO [nonan-1-ol] + CCCCCCCO
[1]
Details | mass density, 293.15 K [kg/m3] | mass density, 298.15 K [kg/m3] | viscosity, 293.15 K [mPa·s] | viscosity, 298.15 K [mPa·s]
x2 = 0 | 827.9 | 824.4 | 11.68 | 9.671
x2 = 0.1181 | 827 | 823.6 | 11.16 | 9.249
x2 = 0.2245 | 826.6 | 823.2 | 10.56 | 8.777
x2 = 0.307 | 826.2 | 822.8 | 10.02 | 8.328
x2 = 0.4093 | 825.7 | 822.3 | 9.551 | 7.951
x2 = 0.5045 | 825.1 | 821.7 | 9.146 | 7.628
x2 = 0.5969 | 824.7 | 821.2 | 8.61 | 7.211
x2 = 0.6924 | 824.2 | 820.7 | 8.347 | 6.976
x2 = 0.7866 | 823.6 | 820.2 | 7.968 | 6.662
x2 = 0.8883 | 823 | 819.5 | 7.439 | 6.266

CCCCCO [pentan-1-ol] + CCCCCCCO
[1], x1 = 1
Details | mass density [kg/m3] | viscosity [mPa·s]
293.15 K | 814.6 | 4.029
298.15 K | 811 | 3.494

CCCCCCCO [heptan-1-ol] + CCCCCCCCCO
[1], x1 = 1
Details | mass density [kg/m3] | viscosity [mPa·s]
293.15 K | 822.2 | 7.104
298.15 K | 818.7 | 5.993

CCCCCCCCCCCO [1-undecanol]
[2]
Details | mass density [kg/m3] | viscosity [mPa·s]
293.15 K | 832.5 | 17.18
298.15 K | 829 | 14.02

CCCCCCCO [heptan-1-ol] + CCCCCCCCCCCO
[1], x1 = 1
Details | mass density [kg/m3] | viscosity [mPa·s]
293.15 K | 822.2 | 7.104
298.15 K | 818.7 | 5.993

CCCO [propan-1-ol] + CCCCCCCCCCCO
[1], x1 = 1
Details | mass density [kg/m3] | viscosity [mPa·s]
293.15 K | 803.5 | 2.272
298.15 K | 799.6 | 1.966

CCCCCCCCCCCO [1-undecanol] + CCCO
[1]
Details | mass density, 293.15 K [kg/m3] | mass density, 298.15 K [kg/m3] | viscosity, 293.15 K [mPa·s] | viscosity, 298.15 K [mPa·s]
x2 = 0 | 832.5 | 829 | 17.18 | 14.02
x2 = 0.1283 | 830.7 | 827.3 | 15.08 | 12.37
x2 = 0.2079 | 829.6 | 826.2 | 13.44 | 11.11
x2 = 0.3145 | 827.9 | 824.4 | 11.56 | 9.558
x2 = 0.4057 | 826.1 | 822.6 | 10.06 | 8.394
x2 = 0.5075 | 824 | 820.5 | 8.321 | 6.998
x2 = 0.6096 | 821.3 | 817.7 | 6.814 | 5.804
x2 = 0.6937 | 818.7 | 815.1 | 5.634 | 4.823
x2 = 0.7922 | 815 | 811.4 | 4.399 | 3.808
x2 = 0.8907 | 810.3 | 806.5 | 3.274 | 2.857

CCCCCCCCCO [nonan-1-ol] + CCCO
[1]
Details | mass density, 293.15 K [kg/m3] | mass density, 298.15 K [kg/m3] | viscosity, 293.15 K [mPa·s] | viscosity, 298.15 K [mPa·s]
x2 = 0 | 827.9 | 824.4 | 11.68 | 9.671
x2 = 0.0808 | 826.5 | 823.1 | 10.86 | 9.007
x2 = 0.2286 | 824.6 | 821.2 | 9.037 | 7.55
x2 = 0.3296 | 823.1 | 819.6 | 7.921 | 6.701
x2 = 0.4104 | 821.7 | 818.2 | 7.097 | 6.002
x2 = 0.5176 | 819.5 | 816 | 6.051 | 5.147
x2 = 0.6051 | 817.6 | 814 | 5.268 | 4.513
x2 = 0.6801 | 815.5 | 811.9 | 4.501 | 3.904
x2 = 0.7961 | 811.9 | 808.3 | 3.583 | 3.129
x2 = 0.8945 | 808.3 | 804.5 | 2.9 | 2.554

CCCCCCCO [heptan-1-ol] + CCCO
[1]
Details | mass density, 293.15 K [kg/m3] | mass density, 298.15 K [kg/m3] | viscosity, 293.15 K [mPa·s] | viscosity, 298.15 K [mPa·s]
x2 = 0 | 822.2 | 818.7 | 7.104 | 5.993
x2 = 0.09 | 821.2 | 817.7 | 6.596 | 5.614
x2 = 0.1795 | 820.2 | 816.7 | 6.08 | 5.158
x2 = 0.3279 | 818.2 | 814.6 | 5.288 | 4.519
x2 = 0.4103 | 816.9 | 813.3 | 4.862 | 4.174
x2 = 0.5058 | 815.3 | 811.7 | 4.282 | 3.714
x2 = 0.6106 | 813.5 | 809.8 | 3.825 | 3.342
x2 = 0.6991 | 811.6 | 807.9 | 3.443 | 3.009
x2 = 0.7989 | 809.3 | 805.6 | 3.011 | 2.634
x2 = 0.8882 | 807 | 803.2 | 2.643 | 2.34

CCCO [propan-1-ol] + CCCCCCCO
[1], x1 = 1
Details | mass density [kg/m3] | viscosity [mPa·s]
293.15 K | 803.5 | 2.272
298.15 K | 799.6 | 1.966

CCCCCCCCCCCO [1-undecanol] + CCCCCO
[1]
Details | mass density, 293.15 K [kg/m3] | mass density, 298.15 K [kg/m3] | viscosity, 293.15 K [mPa·s] | viscosity, 298.15 K [mPa·s]
x2 = 0 | 832.5 | 829 | 17.18 | 14.02
x2 = 0.1218 | 830.3 | 826.9 | 15.92 | 13.04
x2 = 0.2312 | 829.1 | 825.7 | 13.84 | 11.4
x2 = 0.3167 | 828 | 824.6 | 12.28 | 10.14
x2 = 0.4002 | 826.9 | 823.5 | 11.17 | 9.277
x2 = 0.5076 | 825.2 | 821.8 | 9.516 | 7.956
x2 = 0.6003 | 823.7 | 820.3 | 8.205 | 6.902
x2 = 0.6977 | 822 | 818.5 | 6.943 | 5.846
x2 = 0.7982 | 819.8 | 816.3 | 5.804 | 4.908
x2 = 0.8954 | 817.5 | 813.9 | 4.87 | 4.16
